Laboratory results as given in article PMC11969009 (Nature Communications, 2025).
pEC50, pIC50, pKd: −log10 of the molar value. Converted amounts (≈) assume the structure as drawn. “And” between values parts separate entries of the source, which are not always exact repeats. Identical values can stand only once. “Also recorded” adds a separate entry of the source. Like-named read-outs stand apart in the source and are kept apart here.

How the values were obtained:
CYP2C9 [1] = target: T1, CYP2C9 (Homo sapiens, UniProt P11712); assay: in vitro; conditions: microsomes, pH 7.4
SARS-CoV-2 PLpro [2] = target: T2, SARS-CoV-2 PLpro (Severe acute respiratory syndrome coronavirus 2, UniProt P0DTD1); assay: cell-based; type: cell-based
in vitro [3] = conditions: human, hepatocytes, pH 7.4
SARS-CoV-2 PLpro [4] = target: T2, SARS-CoV-2 PLpro; assay: biochemical; type: binding
CYP1A2 [5] = target: T3, CYP1A2 (Homo sapiens, UniProt P05177); assay: biochemical
SARS-CoV-2 P21 [6] = test system: SARS-CoV-2 P21; parameters: species or system C57BL/6 (WT) mice; conditions: mouse, in vivo
SARS-CoV-2 P21 [7] = test system: SARS-CoV-2 P21; parameters: species or system C57BL/6 (WT) mice; Macrophages: unit not given here; conditions: mouse, in vivo
CYP3A4/5 [8] = assay: in vitro; conditions: human, microsomes
hERG = hERG (Homo sapiens, UniProt Q12809); assay: biochemical
CYP2C9 [9] = target: T1, CYP2C9; assay: biochemical
CYP2B6 [10] = target: T4, CYP2B6 (Homo sapiens, UniProt P20813)
CYP2C8 [11] = target: T5, CYP2C8 (Homo sapiens, UniProt P10632); assay: biochemical
[12] = test system: SARS-CoV-2 clinical isolate VIC001; assay: microbe, parasite or virus in culture; type: cell-based
SARS-CoV-2 PLpro [13] = target: T2, SARS-CoV-2 PLpro; assay: biochemical
in vitro [14] = conditions: mouse, hepatocytes, pH 7.4
in vivo = conditions: male, C57BL/6, mouse, po, 100 mg/kg
physchem [15] = conditions: pH 7.4
CYP2C19 [16] = target: T6, CYP2C19 (Homo sapiens, UniProt P33261); assay: biochemical
SARS-CoV-2 P2 strain = test system: SARS-CoV-2 P2 strain; parameters: species or system C57BL/6 (WT) mice; conditions: mouse, in vivo
CYP3A4/5 [17] = assay: in vitro; conditions: human, microsomes; remark: listed apart in the source
CYP2C19 [18] = target: T6, CYP2C19
CYP2C8 [19] = target: T5, CYP2C8; conditions: 20 µM
in vitro [20] = conditions: both, CD1, mouse, plasma, pH 7.4
SARS-CoV-2 P21 [21] = test system: SARS-CoV-2 P21; parameters: species or system C57BL/6 (WT) mice; conditions: mouse, in vivo; remark: listed apart in the source
in vitro [22] = conditions: human, microsomes, pH 7.4
in vitro [23] = conditions: both, human, plasma, pH 7.4
CYP2B6 [24] = target: T4, CYP2B6; assay: biochemical
in vitro [25] = conditions: mouse, microsomes, pH 7.4
CYP1A2 [26] = target: T3, CYP1A2
CYP2D6 = CYP2D6 (Homo sapiens, UniProt P10635); assay: biochemical
physchem [27] = conditions: kinetic from dmso stock
[28] = test system: SARS-CoV-2 clinical isolate VIC001; type: cell-based

T1 sequence (P11712 whole entry): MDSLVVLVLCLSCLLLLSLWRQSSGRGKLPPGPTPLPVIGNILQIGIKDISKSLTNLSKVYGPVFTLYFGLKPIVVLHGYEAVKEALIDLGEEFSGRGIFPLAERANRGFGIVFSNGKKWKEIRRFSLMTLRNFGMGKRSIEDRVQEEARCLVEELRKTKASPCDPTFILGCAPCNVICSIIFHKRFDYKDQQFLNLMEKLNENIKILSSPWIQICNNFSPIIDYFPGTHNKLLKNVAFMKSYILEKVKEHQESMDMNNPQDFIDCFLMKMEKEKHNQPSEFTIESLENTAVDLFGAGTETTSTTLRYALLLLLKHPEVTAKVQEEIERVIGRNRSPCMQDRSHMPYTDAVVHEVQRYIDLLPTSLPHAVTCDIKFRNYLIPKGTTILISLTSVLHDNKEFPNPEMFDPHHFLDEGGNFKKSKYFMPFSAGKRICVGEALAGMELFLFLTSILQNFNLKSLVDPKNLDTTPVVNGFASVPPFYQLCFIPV
T4 sequence (P20813 whole entry): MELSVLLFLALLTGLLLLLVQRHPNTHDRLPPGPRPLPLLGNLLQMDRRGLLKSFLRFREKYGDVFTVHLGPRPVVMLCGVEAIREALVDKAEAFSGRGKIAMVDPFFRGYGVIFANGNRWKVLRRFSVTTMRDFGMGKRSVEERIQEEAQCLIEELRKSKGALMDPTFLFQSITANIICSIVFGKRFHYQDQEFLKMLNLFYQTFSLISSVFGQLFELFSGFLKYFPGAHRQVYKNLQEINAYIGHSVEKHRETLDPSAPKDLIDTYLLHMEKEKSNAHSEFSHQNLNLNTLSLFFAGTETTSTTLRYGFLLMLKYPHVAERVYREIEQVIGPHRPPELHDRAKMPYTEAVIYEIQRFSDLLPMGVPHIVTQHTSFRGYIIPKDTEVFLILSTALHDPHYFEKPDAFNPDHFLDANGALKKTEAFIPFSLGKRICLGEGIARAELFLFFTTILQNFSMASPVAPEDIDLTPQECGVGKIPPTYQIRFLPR
T6 sequence (P33261 whole entry): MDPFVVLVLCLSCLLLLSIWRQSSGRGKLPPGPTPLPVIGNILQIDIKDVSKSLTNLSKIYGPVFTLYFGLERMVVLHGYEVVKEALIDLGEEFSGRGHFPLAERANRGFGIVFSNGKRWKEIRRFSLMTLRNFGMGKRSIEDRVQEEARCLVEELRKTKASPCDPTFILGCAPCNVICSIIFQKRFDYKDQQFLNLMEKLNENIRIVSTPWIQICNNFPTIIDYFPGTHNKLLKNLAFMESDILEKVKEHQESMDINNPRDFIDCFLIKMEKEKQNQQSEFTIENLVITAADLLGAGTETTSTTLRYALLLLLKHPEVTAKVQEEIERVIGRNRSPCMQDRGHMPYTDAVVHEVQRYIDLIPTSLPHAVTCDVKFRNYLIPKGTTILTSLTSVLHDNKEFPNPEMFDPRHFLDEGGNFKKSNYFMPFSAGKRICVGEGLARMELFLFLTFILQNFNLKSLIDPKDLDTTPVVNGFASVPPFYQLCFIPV
T3 sequence (P05177 whole entry): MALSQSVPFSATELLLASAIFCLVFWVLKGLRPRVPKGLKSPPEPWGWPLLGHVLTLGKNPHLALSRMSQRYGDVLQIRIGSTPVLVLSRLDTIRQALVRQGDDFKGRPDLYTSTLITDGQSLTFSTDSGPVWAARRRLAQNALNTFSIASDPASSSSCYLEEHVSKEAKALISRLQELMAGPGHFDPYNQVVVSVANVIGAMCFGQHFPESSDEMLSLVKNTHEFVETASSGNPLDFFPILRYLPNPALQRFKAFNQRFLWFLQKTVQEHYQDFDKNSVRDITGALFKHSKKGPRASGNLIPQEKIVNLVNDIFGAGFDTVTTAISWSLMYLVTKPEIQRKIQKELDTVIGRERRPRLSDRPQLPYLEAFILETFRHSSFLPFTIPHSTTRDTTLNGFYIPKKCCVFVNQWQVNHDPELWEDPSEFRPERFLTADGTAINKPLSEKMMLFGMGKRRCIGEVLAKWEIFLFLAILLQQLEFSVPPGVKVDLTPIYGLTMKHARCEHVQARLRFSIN
T5 sequence (P10632 whole entry): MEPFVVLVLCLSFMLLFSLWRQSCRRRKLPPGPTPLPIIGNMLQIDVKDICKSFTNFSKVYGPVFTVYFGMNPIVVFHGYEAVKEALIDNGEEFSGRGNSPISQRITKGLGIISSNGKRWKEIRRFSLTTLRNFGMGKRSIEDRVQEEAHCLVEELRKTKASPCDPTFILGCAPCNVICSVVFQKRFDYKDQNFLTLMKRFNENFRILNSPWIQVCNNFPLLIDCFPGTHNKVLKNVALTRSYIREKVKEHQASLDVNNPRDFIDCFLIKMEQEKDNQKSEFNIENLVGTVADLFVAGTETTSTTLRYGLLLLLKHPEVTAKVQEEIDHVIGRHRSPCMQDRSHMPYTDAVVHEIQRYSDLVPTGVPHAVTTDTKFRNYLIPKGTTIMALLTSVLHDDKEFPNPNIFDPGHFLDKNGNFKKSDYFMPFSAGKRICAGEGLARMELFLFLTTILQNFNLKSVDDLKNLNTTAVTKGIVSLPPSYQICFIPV
CYP2D6, sequence (P10635 whole entry): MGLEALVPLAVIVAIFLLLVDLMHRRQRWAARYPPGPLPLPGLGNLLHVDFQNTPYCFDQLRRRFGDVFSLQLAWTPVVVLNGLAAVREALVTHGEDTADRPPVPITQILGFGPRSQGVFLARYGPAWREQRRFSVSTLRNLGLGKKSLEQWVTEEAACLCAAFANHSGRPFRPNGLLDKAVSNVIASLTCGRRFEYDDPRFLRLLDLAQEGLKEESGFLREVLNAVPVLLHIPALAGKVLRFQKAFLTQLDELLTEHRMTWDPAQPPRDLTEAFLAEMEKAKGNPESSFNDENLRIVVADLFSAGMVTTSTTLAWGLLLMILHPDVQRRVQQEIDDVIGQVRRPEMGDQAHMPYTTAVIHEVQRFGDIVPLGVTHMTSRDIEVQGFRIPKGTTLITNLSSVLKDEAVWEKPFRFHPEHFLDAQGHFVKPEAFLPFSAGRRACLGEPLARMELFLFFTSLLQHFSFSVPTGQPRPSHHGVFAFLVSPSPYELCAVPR
hERG, sequence (Q12809 whole entry): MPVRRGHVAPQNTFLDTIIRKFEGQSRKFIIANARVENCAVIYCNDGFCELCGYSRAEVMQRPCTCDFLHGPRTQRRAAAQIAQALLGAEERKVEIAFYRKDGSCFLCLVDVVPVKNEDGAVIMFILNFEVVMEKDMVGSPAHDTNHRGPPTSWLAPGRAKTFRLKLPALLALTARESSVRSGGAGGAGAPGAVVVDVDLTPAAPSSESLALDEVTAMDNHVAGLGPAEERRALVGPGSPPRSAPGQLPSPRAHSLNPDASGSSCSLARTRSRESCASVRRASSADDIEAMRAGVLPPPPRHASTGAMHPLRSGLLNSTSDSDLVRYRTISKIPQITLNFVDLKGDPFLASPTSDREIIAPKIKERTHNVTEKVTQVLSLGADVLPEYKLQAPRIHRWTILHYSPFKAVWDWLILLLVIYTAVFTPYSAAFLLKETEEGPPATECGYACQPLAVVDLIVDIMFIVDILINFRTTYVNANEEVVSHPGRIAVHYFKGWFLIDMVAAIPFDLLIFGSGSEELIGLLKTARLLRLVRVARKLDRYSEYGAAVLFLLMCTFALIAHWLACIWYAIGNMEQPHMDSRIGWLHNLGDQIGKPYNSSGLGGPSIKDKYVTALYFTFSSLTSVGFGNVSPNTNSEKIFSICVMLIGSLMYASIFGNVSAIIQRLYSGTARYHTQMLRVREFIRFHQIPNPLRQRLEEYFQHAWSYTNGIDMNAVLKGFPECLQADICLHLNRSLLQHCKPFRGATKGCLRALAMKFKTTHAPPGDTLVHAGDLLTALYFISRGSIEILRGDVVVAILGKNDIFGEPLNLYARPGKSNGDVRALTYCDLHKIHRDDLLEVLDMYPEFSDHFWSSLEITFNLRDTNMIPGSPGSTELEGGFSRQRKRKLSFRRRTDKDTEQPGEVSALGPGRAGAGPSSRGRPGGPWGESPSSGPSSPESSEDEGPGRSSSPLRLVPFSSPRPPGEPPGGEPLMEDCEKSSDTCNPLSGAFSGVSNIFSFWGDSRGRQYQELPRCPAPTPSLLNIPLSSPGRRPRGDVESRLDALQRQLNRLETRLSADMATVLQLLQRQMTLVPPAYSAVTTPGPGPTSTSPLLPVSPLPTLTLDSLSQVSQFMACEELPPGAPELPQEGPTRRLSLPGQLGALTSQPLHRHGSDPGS

CCON=C(c1ccc2cc(OC)ccc2c1)C1CCCN(C2CCC(O)CC2)C1 (stereo not drawn) [WEHI-P8]
inhibition at 20 µM (CYP2C9 [1]): 26%
pEC50 (SARS-CoV-2 PLpro [2]): 6.53
half-life (in vitro [3]): 2.32 h
hepatocyte CLint (in vitro [3]): 10 µL/min/1e6 cells
pKd (SARS-CoV-2 PLpro [4]): 8.05
Response (RU), report points (SARS-CoV-2 PLpro [4]): 23.2517 RU and 23.7185 RU and 25.1250 RU and 25.7597 RU and 25.8254 RU and 25.1414 RU
pIC50 (CYP1A2 [5]): < 4.70
gut inflammation (SARS-CoV-2 P21 [6]): could not be rescued
lung H&E pathology at 1 month, PASC model (SARS-CoV-2 P21 [6]): reduced signs of haemorrhage and immune cell infiltrates
neuroinflammation, microglial activation (IBA-1) (SARS-CoV-2 P21 [6]): significantly reduced
right ventricle area (SARS-CoV-2 P21 [6]): no significant differences between vehicle-treated or antiviral-treated groups
infection-induced weight loss, PASC model (SARS-CoV-2 P21 [6]; 150 mg/kg): effectively prevented infection-induced weight loss
survival of acute phase, PASC model (SARS-CoV-2 P21 [6]; 150 mg/kg): all treated animals survived the acute phase of infection
Log2 Fold change IL-10 (SARS-CoV-2 P21 [7]): -6.27
Macrophages (SARS-CoV-2 P21 [7]): 10.22 and 12.4 and 14.7 and 14.8 and 13 and 14.2 and 15.1 and 11.5
reduction of viral burdens, severe model (SARS-CoV-2 P21 [7]): more effective than PLT at reducing viral burdens
weight loss, severe model (SARS-CoV-2 P21 [7]): rescuing mice from weight loss
lung H&E histology, severe model (SARS-CoV-2 P21 [7]; 100 mg/kg): only mild inflammation
lung IHC immune cell subsets, severe model (SARS-CoV-2 P21 [7]; 100 mg/kg): significantly reduce the numbers of macrophages and neutrophils
lung cytokine and chemokine profiling, severe model (SARS-CoV-2 P21 [7]; 100 mg/kg): significantly reduce the levels of a wider range of pro-inflammatory cytokines and chemokines
efficacy of pre-infection regimen versus treatment after infection (SARS-CoV-2 P21 [7]; 150 mg/kg): no more effective than initiating treatment after infection; also recorded: did not confer a significant benefit compared to post-infection treatment initiation
lung H&E histology, severe model (SARS-CoV-2 P21 [7]; 150 mg/kg): minimal to unremarkable histological changes
lung IHC immune cell subsets, severe model (SARS-CoV-2 P21 [7]; 150 mg/kg): also reduced the number of T cells
inhibition at 20 µM (CYP3A4/5 [8]; Time dependent CYP3A4/5 % inhibition at 20 µM): 25%
pIC50 (CYP3A4/5 [8]; Time dependent CYP3A4/5 IC50 + NADPH): < 4.70
pIC50 (CYP3A4/5 [8]; Time dependent CYP3A4/5 IC50 - NADPH): < 4.70
pIC50 (hERG): 5.27
pIC50 (CYP2C9 [9]): < 4.70
CYP2B6 % inhibition at 20 µM (CYP2B6 [10]): No measurable inhibition
pIC50 (CYP2C8 [11]): < 4.70
Ext Data Fig 6e dose response, normalised (0 µM = 100) ([12]; 0.01 µM): 105.19 and 94.34 and 104.76 and 91.8 and 114.493 and 94.2029
Ext Data Fig 6e dose response, normalised (0 µM = 100) ([12]; 0.02 µM): 94.81 and 103.77 and 95.24 and 103.28 and 113.043 and 95.6522
Ext Data Fig 6e dose response, normalised (0 µM = 100) ([12]; 0.04 µM): 90.91 and 75.47 and 93.65 and 80.33 and 105.797 and 88.4058
Ext Data Fig 6e dose response, normalised (0 µM = 100) ([12]; 0.08 µM): 79.22 and 86.79 and 63.49 and 63.93 and 86.9565 and 85.5072
Ext Data Fig 6e dose response, normalised (0 µM = 100) ([12]; 5 µM): 0
pEC50 ([12]; Severe acute respiratory syndrome coronavirus 2, Vero, 144 h, read-out: EC50 Replicate 1): 6.33
pEC50 ([12]; Severe acute respiratory syndrome coronavirus 2, Vero, 144 h, read-out: EC50 Replicate 2): 6.48
pEC50 ([12]; Severe acute respiratory syndrome coronavirus 2, Vero, 144 h, read-out: EC50 Replicate 3): 6.56
pEC50 ([12]; Severe acute respiratory syndrome coronavirus 2, Vero, read-out: Antiviral EC50 (plaque assay)): 6.44
pEC50 ([12]; Severe acute respiratory syndrome coronavirus 2, Vero, read-out: Antiviral EC50 (plaque assay) with Pgp inhibitor): 6.54
pEC50 ([12]; read-out: EC50 Replicate 1): 6.43
pEC50 ([12]; read-out: EC50 Replicate 2): 6.63
pEC50 ([12]; read-out: EC50 Replicate 3): 6.60
inhibition at 0.545 µM (SARS-CoV-2 PLpro [13]; Conc 0.545 µM, read-out: SARS-CoV-2 PLpro, UbRh dose-response): 96.1%
inhibition at 1.63 µM (SARS-CoV-2 PLpro [13]; Conc 1.63 µM, read-out: SARS-CoV-2 PLpro, UbRh dose-response): 97.9%
inhibition at 4.9 µM (SARS-CoV-2 PLpro [13]; Conc 4.9 µM, read-out: SARS-CoV-2 PLpro, UbRh dose-response): 100%
pIC50 (SARS-CoV-2 PLpro [13]; IC50 (UbRh) SARS-CoV-2 PLpro): 7.92
inhibition at […] (SARS-CoV-2 PLpro [13]; read-out: SARS-CoV-2 PLpro, UbRh dose-response): 95.1% and 83.6%
half-life (in vitro [14]): 1.38 h
hepatocyte CLint (in vitro [14]): 16.8 µL/min/1e6 cells
AUC(0-inf) (in vivo): ~108 µM·h
AUC(0-t) (in vivo): 72.3 µM·h
Cmax (in vivo): 7.07 µM
Tmax (in vivo): 1 h
half-life (in vivo; Apparent t1/2): 14 h
chromatographic logD (physchem [15]): 3.8
pIC50 (CYP2C19 [16]): < 4.70
antiviral activity (lung viral burden), mild model (SARS-CoV-2 P2 strain): antiviral efficacy in inhibiting P2 virus replication, comparable to that observed with WEHI-P8; also recorded: cannot be further enhanced by concurrent ritonavir co-treatment
antiviral efficacy (lung viral burden), mild model, treatment after infection (SARS-CoV-2 P2 strain; 150 mg/kg): did not change the antiviral efficacy
inhibition at 20 µM (CYP3A4/5 [17]; pH 7.4, CYP3A4/5 % inhibition at 20 µM): 28%
pIC50 (CYP3A4/5 [17]; pH 7.4, CYP3A4/5 IC50): < 4.70
CYP2C19 % inhibition at 20 µM (CYP2C19 [18]): No measurable inhibition
CYP2C8 % inhibition at 20 µM (CYP2C8 [19]): No measurable inhibition
fraction unbound (in vitro [20]): 0.062
NORT exploratory behaviour / preference for the novel object (SARS-CoV-2 P21 [21]): significantly higher preference for the novel object
NORT impairment in females (SARS-CoV-2 P21 [21]): partially mitigated
overall distance travelled, infected females (SARS-CoV-2 P21 [21]): rescued by WEHI-P8 treatment
recognition index (SARS-CoV-2 P21 [21]): did not reveal significant sex- or drug dependent differences
Recognition Index (females) (SARS-CoV-2 P21 [21]; 150 mg/kg): 0.5 and 0.9 and 0.57 and 0.7
Recognition Index (males) (SARS-CoV-2 P21 [21]; 150 mg/kg): 0.8 and 0.529 and 0.7
half-life (in vitro [22]): 2.4 h
microsomal CLint (in vitro [22]): 9.7 µL/min/mg
fraction unbound (in vitro [23]): 0.153
pIC50 (CYP2B6 [24]): < 4.70
half-life (in vitro [25]): 0.692 h
microsomal CLint (in vitro [25]): 33.4 µL/min/mg
CYP1A2 % inhibition at 20 µM (CYP1A2 [26]): No measurable inhibition
pIC50 (CYP2D6): 4.86
solubility kinetic (physchem [27]; pH 2, aqueous buffer): > 320 µM
solubility kinetic (physchem [27]; pH 6.5, aqueous buffer): 160 to 320 µM (≈ 65.7 to 131 µg/mL)

CCC(CC)COC(=O)[C@H](C)N[P@](=O)(OC[C@H]1O[C@@](C#N)(c2ccc3c(N)ncnn23)[C@H](O)[C@@H]1O)Oc1ccccc1 [Remdesivir, remdesivir]
TCID50 [28]: 15.3
